MIC data for two molecules are collected here from patent publication US20160175318A1, “COMPOSITIONS COMPRISING ANTIBACTERIAL AGENT AND TAZOBACTAM” (WOCKHARDT LIMITED, priority 2013, published 2016).

Holding throughout (experiment): MIC by agar dilution (CLSI) against highly resistant ESBL strain
Holding throughout (type): cell-based

In one test the test system is E. coli M50. The protocol:
(§1) The results on activity of cefepime and other cephalosporin antibacterial agents in combination with tazobactam against highly resistant ESBL strains are given Table 1. In a typical study, overnight grown bacterial cultures were diluted appropriately and inoculated on the agar media containing doubling dilutions of the antibiotic. Observation for growth or no growth was performed after 16-20 h of incubation at 35±2° C. in ambient air. The overall procedure was performed as per Clinical and Laboratory Standards Institute (CLSI) recommendations. This experimental was followed for Examples 2-4 and 6 below (Table 2-4 and 7).

The next test concerns E. coli B-89. The protocol:
as §1

The subject of the next test is E. cloacae M-20. As for the experimental part: as §1
Another test concerns E. coli 7MP. As for the experimental part: as §1
Another test concerns E. coli B123. The protocol: as §1
Setting [1] is: Escherichia coli, M50, 20 h, Tazobactam 0 mcg (antibiotic alone).
Where [2] appears, read: E. coli B-89, with Tazobactam 4 mcg.
Setting [3] is: E. coli B-89, with Tazobactam 8 mcg.
Setting [4] is: E. cloacae M-20, with Tazobactam 4 mcg.
Where [5] appears, read: E. cloacae M-20, with Tazobactam 8 mcg.
Where [6] appears, read: Enterobacter cloacae, M20, 20 h.
[7] abbreviates: E. coli 7MP, with Tazobactam 4 mcg.
[8] abbreviates: E. coli 7MP, with Tazobactam 8 mcg.
Where [9] appears, read: Escherichia coli, B123, E. coli B123, with Tazobactam 4 mcg, read-out: MIC.
Setting [10] is: Escherichia coli, B123, E. coli B123, with Tazobactam 8 mcg, read-out: MIC.

Like-named read-outs stand apart in the source and are kept apart here.

For `CC(C)(O/N=C(\C(=O)N[C@@H]1C(=O)N2C(C(=O)[O-])=C(C[n+]3ccccc3)CS[C@H]12)c1csc(N)n1)C(=O)O` [Ceftazidime], the minimum inhibitory concentration (MIC) (usually the lowest concentration found to suppress growth) with E. coli M50 (setting [1]) is > 128 mg/L; in the test on E. coli M50 (with Tazobactam 4 mcg), >64 mg/L; in the test on E. coli M50 (with Tazobactam 8 mcg), >64 mg/L; in the test on E. coli B-89 (setting [2]), >64 mg/L; in the test with E. coli B-89 (setting [3]), 64 mg/L; in the test with E. coli B-89 (Escherichia coli, B89, 20 h) it was > 128 mg/L. Besides, the MIC was >64 mg/L in the test on E. cloacae M-20 (setting [4]); 64 mg/L in the test with E. cloacae M-20 (setting [5]); > 128 mg/L with E. cloacae M-20 (setting [6]); >64 mg/L in the test on E. coli 7MP (setting [7]); >64 mg/L in the test on E. coli 7MP (setting [8]); > 128 mg/L in the test on E. coli 7MP (Escherichia coli, 7MP, 20 h). Also, the minimal inhibitory concentration (MIC) with E. coli B123 (Escherichia coli, B123) was > 128 mg/L; in the test on E. coli B123 (setting [9]), > 64 mg/L; in the test on E. coli B123 (setting [10]), > 64 mg/L.

As for `CO/N=C(\C(=O)N[C@@H]1C(=O)N2C(C(=O)O)=C(CSc3nc(=O)c(=O)[nH]n3C)CS[C@H]12)c1csc(N)n1` [Ceftriaxone], the minimal inhibitory concentration (MIC) was 128 mg/L with E. coli M50 (setting [1]); 64 mg/L in the test with E. coli M50 (with Tazobactam 8 mcg); >128 mg/L in the test with E. coli B-89 (E. coli B-89, Tazobactam 0 mcg (antibiotic alone)); >64 mg/L in the test with E. coli B-89 (setting [2]); >64 mg/L in the test with E. coli B-89 (setting [3]); > 128 mg/L in the test on E. coli B-89 (Escherichia coli, B89, 20 h). Moreover, the minimum inhibitory concentration (MIC) in the test on E. cloacae M-20 (setting [4]) is >64 mg/L; in the test on E. cloacae M-20 (setting [5]), >64 mg/L; in the test with E. cloacae M-20 (setting [6]), > 128 mg/L; with E. coli 7MP (E. coli 7MP, Tazobactam 0 mcg (antibiotic alone)) it was >128 mg/L; in the test with E. coli 7MP (setting [7]), >64 mg/L; in the test with E. coli 7MP (setting [8]) it was >64 mg/L. Besides, the MIC with E. coli 7MP (Escherichia coli, 7MP, 20 h) is > 128 mg/L; with E. coli B123 (E. coli B123, Tazobactam 0 mcg (antibiotic alone)), >128 mg/L; in the test on E. coli B123 (E. coli B123, with Tazobactam 4 mcg), >64 mg/L; in the test with E. coli B123 (E. coli B123, with Tazobactam 8 mcg), >64 mg/L; in the test on E. coli B123 (Escherichia coli, B123), > 128 mg/L; in the test with E. coli B123 (setting [9]), > 64 mg/L. Further, the minimum inhibitory concentration (MIC) in the test with E. coli B123 (setting [10]) is > 64 mg/L.
